Laboratory results from patent US10519125B2, “Flavagline derivatives” (PIERRE FABRE MEDICAMENT, priority 2014, dated 2019).

Key:
[1] = test system: HCT116 line (human colon cancer cell line); test: Antiproliferative (cytotoxic) activity on HCT116 line, ATPLite cell viability, 72 hours; type: cell-based; settings: HCT-116, HCT116, 72 hours after addition, ATPLite, read-out: HCT116 (EC50)
Description: 2.1. Antiproliferative Activity of the Compounds According to the Invention (IC50 in M)
Culture of Lines and Measurement of Cell Viability:
The HCT116 line (ATCC, CCL-247) derived from colon cancer was cultured in MEM (Minimum Essential Medium Eagle) supplemented with 2 mM L-glutamine (Sigma, G7513), 5% fetal calf serum (Sigma, F7524) and antibiotics (Sigma, A59-55). The protocol for determining cytotoxic activity consists in seeding cells on 96-well plates (Perkin Elmer, 6005668) at a density of 1500 cells per well. After 24 hours of incubation, the test compound is applied in each well, using serial dilutions in the solvent dimethylsulfoxide (DMSO) (Sigma, D8418), from 10 mM stock solutions in 100% DMSO. Each dilution was added to the cells 24 hours after seeding. Under these conditions, the final solvent concentration is 0.1% DMSO. A reading of cell proliferation was carried out 72 hours after addition of the products with the ATPLite™ kit (Perkin Elmer, 6016947) and according to the manufacturer's recommendations. The analysis of the proliferation results was carried out by comparison with conditions where only the carrier solvent (culture medium, 0.1% DMSO) was added to the cells. The dose-response curves obtained were analyzed using the PRISM 4.03 software (GraphPad Software Inc.), or by an equivalent analytical method, to determine the concentration of each compound which inhibits 50% of cell proliferation (EC50).
By way of example, the cytotoxic properties of several compounds of the invention evaluated on the HCT116 line (human colon cancer cell line) are reported in Table 1.

[2] = test system: MDA-MB-231 human tumor xenograft; test: Antitumor activity, subcutaneous MDA-MB-231 breast cancer xenografts in SCID mice; type: in vivo; settings: for Activity: q1d5 × 3, MDA-MB-231; for Deaths (%): q1d5 × 3, SCID mice
Description: Subcutaneous xenografts were established with MDA-MD-231 breast cancer cells (ATCC: HTB-26) in SCID mice (Harlan, U.K.). The animals were treated and cared after in accordance with the Guide For the Care and Use of Laboratory Animals (National Research Council, 1996) and with European Directive 86/609/EEC, under the supervision of a staff expert authorized to conduct experimental studies with laboratory animals.
All the experiments were conducted pursuant to French and local regulations (Department of Veterinary Services, Haute-Garonne, Toulouse) according to the directives of an ethics committee, based on the UKCCCR Guidelines for the Welfare of Animals in Experimental Neoplasia, as indicated above. The implantation of MDA-MB-231 human tumor fragments is carried subcutaneously in the flanks of SCID mice using a trocar and, for the study of tumor growth, the tumors are allowed to reach a median volume of 70-130 mm^3 before starting the studies.
After randomization in the treatment cages, the inhibitors were administered intravenously according to a g1d5×3 treatment scheme (5 injections per week for 3 weeks). The mice were monitored and weighed daily. The tumors were measured with a slide caliper and the tumor volumes (mm^3) were estimated using the following formula: volume=0.5 (length×width^2). Each experimental group consists of 5 individuals. The efficacy of the treatment was evaluated by analysis of the measurement of the median volume of the treated tumors compared with the median volume of the tumors receiving only carrier (control). The T/C evaluation criterion corresponds to: [(median volume of the treated group, T/median volume of the control group, C)×100]. This T/C ratio is expressed as a percentage. The optimal T/C value corresponds to the ratio which reflects the maximum inhibition of growth obtained during the study. The maximum gains or losses of weight, expressed as a percentage of the initial weight of the animals, as well as the percentage of drug-related deaths (i.e., the percentage of treated animals that died before the assessment) were used to provide an evaluation of the toxicity of the compounds. In accordance with the NCI (National Cancer Institute) criterion, a dose is deemed toxic if it induces weight loss greater than −20% relative to the initial weight of the mouse or if it induces more than 20% deaths (Corbett et al. J Exp Ther Oncol 1996, 1:95-108).

[3] = Mus musculus, MDA-MB-231, iv, read-out: Opt. T/C (%)

| SMILES | EC50 [1] | Activity ([2]; 1.4 mg/kg intravenously) | Deaths (%) ([2]; 1.4 mg/kg intravenously) | response vs control in vivo at 1.4 mg/kg [2, 3] | Activity ([2]; 0.2 mg/kg intravenously) | Deaths (%) ([2]; 0.2 mg/kg intravenously) | Activity ([2]; 0.5 mg/kg intravenously) | Deaths (%) ([2]; 0.5 mg/kg intravenously) | Activity ([2]; 0.7 mg/kg intravenously) | Deaths (%) ([2]; 0.7 mg/kg intravenously) | Activity ([2]; 1 mg/kg intravenously) | Deaths (%) ([2]; 1 mg/kg intravenously) | response vs control in vivo at 0.2 mg/kg [2, 3] | response vs control in vivo at 0.5 mg/kg [2, 3] | response vs control in vivo at 0.7 mg/kg [2, 3] | toxicity ([2]; above a dose of 0.7 mg/kg) | antitumor activity ([2]; below a dose of 0.7 mg/kg) |
| --- | --- | --- | --- | --- | --- | --- | --- | --- | --- | --- | --- | --- | --- | --- | --- | --- | --- |
| COc1ccc([C@@]23Oc4cc(OC)cc(OC)c4[C@]2(O)[C@@H]2OC(=S)N[C@@H]2[C@H]3c2ccccc2)cc1 (racemic) [Compound 46, rac-(3aR,4R,4aR,9bS,9cR)-9b-hydroxy-7,9-dimethoxy-4a-(4-methoxyphenyl)-4-phenyl-3,3a,4,4a,9b,9c-hexahydro-2H-benzofuro[3′,2′:3,4]cyclopenta[1,2-d]oxazole-2-thione] | 2.59 nM | Active | 0% | 39% | – | – | – | – | – | – | – | – | – | – | – | – | – |
| COC(=O)[C@H]1[C@@H](O)[C@@]2(O)c3c(OC)cc(O[C@@H]4O[C@@H]([C@H](O)CO)CO[C@H]4OC)cc3O[C@@]2(c2ccc(OC)cc2)[C@@H]1c1ccccc1 [silvestrol, reference compound] | 2.46 nM | Toxic | 100% | – | No activity | 0% | No activity | 0% | Toxic | 40% | Toxic | 100% | 92% | 83% | 63% | highly toxic | no antitumor activity |
| COC(=O)[C@H]1[C@@H](O)[C@@]2(O)c3c(OC)cc(OCCN)cc3O[C@@]2(c2ccc(OC)cc2)[C@@H]1c1ccccc1 (racemic) [Compound 2, rac-(1R,2R,3S,3aR,8bS)-methyl 6-(2-aminoethoxy)-1,8b-dihydroxy-8-methoxy-3a-(4-methoxyphenyl)-3-phenyl-2,3,3a,8b-tetrahydro-1H-cyclopenta[b]benzofuran-2-carboxylate] | 4.03 nM | – | – | – | Active | 0% | – | – | – | – | – | – | 37% | – | – | – | – |
